# System: rats (NAc infusion)
# Experiment: swim test scores during bilateral fluoxetine infusion in the NAc
# Type: in vivo, rat
smiles,measurement,setting,value
CNCCC(Oc1ccc(C(F)(F)F)cc1)c1ccccc1 (centres unmarked) [Fluoxetine],"Swimming + Climbing (total escape attempts), FLU","0.2 mM bilateral in NAc, fluoxetine on Day 2 (Ringer Day 3)",54 ± 30
same,"Swimming + Climbing (total escape attempts), FLU","0.2 mM bilateral in NAc, fluoxetine on Day 3 (Ringer Day 2)",74 ± 13
same,"Swimming + Climbing (total escape attempts), FLU","0.2 mM bilateral in NAc, on Day 2 or Day 3 (combined)",66 ± 12
same,"Swimming + Climbing (total escape attempts), FLU","0.5 mM bilateral in NAc, fluoxetine on Day 2 (Ringer Day 3)",51 ± 9
same,"Swimming + Climbing (total escape attempts), FLU","0.5 mM bilateral in NAc, fluoxetine on Day 3 (Ringer Day 2)",81 ± 9
same,"Swimming + Climbing (total escape attempts), FLU","0.75 mM bilateral in NAc, fluoxetine on Day 2 (Ringer Day 3)",58 ± 11
same,"Swimming + Climbing (total escape attempts), FLU","0.75 mM bilateral in NAc, fluoxetine on Day 3 (Ringer Day 2)",73 ± 11
same,"Swimming + Climbing (total escape attempts), FLU","0.75 mM bilateral in NAc, on Day 2 or Day 3 (combined)",67 ± 7

# Source: patent US20130289019A1, “METHODS OF TREATING BEHAVIORIAL AND/OR MENTAL DISORDERS” (AMAZING GRACE, INC., priority 2012, published 2013)
